Measurements from ChEMBL document CHEMBL3399986, “Rapid 'one-pot' synthesis of a novel benzimidazole-5-carboxylate and its hydrazone derivatives as potential anti-inflammatory and antimicrobial agents” (Bioorg Med Chem Lett, 2015).
In brackets after ≈: the same amount, converted by molar mass.

Legend:
Assay type in all cases: functional
Rattus norvegicus [1] = assay: Antiinflammatory activity in rat assessed as inhibition of carrageenan-induced paw edema administered 30 mins prior to carrageenan challenge measured after 1 hr relative to control
Rattus norvegicus [2] = assay: Antiinflammatory activity in rat assessed as inhibition of carrageenan-induced paw edema administered 30 mins prior to carrageenan challenge measured after 2 hrs relative to control
Rattus norvegicus [3] = assay: Antiinflammatory activity in rat assessed as inhibition of carrageenan-induced paw edema administered 30 mins prior to carrageenan challenge measured after 3 hrs relative to control
Candida tropicalis [4] = assay: Antifungal activity against Candida tropicalis MTCC 183 assessed as zone of inhibition at 5 mg/ml after 24 hrs by agar well diffusion method; settings: MTCC 183, 24 h, read-out: IZ
Candida albicans [5] = assay: Antifungal activity against Candida albicans MTCC 461 assessed as zone of inhibition at 5 mg/ml after 24 hrs by agar well diffusion method; settings: MTCC 461, 24 h, read-out: IZ
Aspergillus niger [6] = assay: Antifungal activity against Aspergillus niger MTCC 282 assessed as zone of inhibition at 5 mg/ml after 24 hrs by agar well diffusion method; settings: MTCC 282, 24 h, read-out: IZ
Escherichia coli [7] = assay: Antimicrobial activity against Escherichia coli MTCC 4351 after 24 hrs by broth dilution method; settings: MTCC 4351, 24 h
Bacillus subtilis [8] = assay: Antimicrobial activity against Bacillus subtilis MTCC 441 after 24 hrs by broth dilution method; settings: MTCC 441, 24 h
Candida albicans [9] = assay: Antifungal activity against Candida albicans MTCC 461 after 48 hrs by broth dilution method; settings: MTCC 461, 48 h
Aspergillus niger [10] = assay: Antifungal activity against Aspergillus niger MTCC 282 after 48 hrs by broth dilution method; settings: MTCC 282, 48 h
Penicillium chrysogenum [11] = assay: Antifungal activity against Penicillium notatum after 48 hrs by broth dilution method
Staphylococcus aureus [12] = assay: Antimicrobial activity against Staphylococcus aureus MTCC 3160 assessed as zone of inhibition at 5 mg/ml after 24 hrs by agar well diffusion method; settings: MTCC 3160, 24 h, read-out: IZ
Klebsiella pneumoniae [13] = assay: Antimicrobial activity against Klebsiella pneumoniae MTCC 3384 assessed as zone of inhibition at 5 mg/ml after 24 hrs by agar well diffusion method; settings: MTCC 3384, 24 h, read-out: IZ
Klebsiella pneumoniae [14] = assay: Antimicrobial activity against Klebsiella pneumoniae MTCC 3384 after 24 hrs by broth dilution method; settings: MTCC 3384, 24 h
Penicillium chrysogenum [15] = assay: Antifungal activity against Penicillium notatum assessed as zone of inhibition at 5 mg/ml after 24 hrs by agar well diffusion method; settings: read-out: IZ
Escherichia coli [16] = assay: Antimicrobial activity against Escherichia coli MTCC 4351 assessed as zone of inhibition at 5 mg/ml after 24 hrs by agar well diffusion method; settings: MTCC 4351, 24 h, read-out: IZ
Candida tropicalis [17] = assay: Antifungal activity against Candida tropicalis MTCC 183 after 48 hrs by broth dilution method; settings: MTCC 183, 48 h
Bacillus subtilis [18] = assay: Antimicrobial activity against Bacillus subtilis MTCC 441 assessed as zone of inhibition at 5 mg/ml after 24 hrs by agar well diffusion method; settings: MTCC 441, 24 h, read-out: IZ
Staphylococcus aureus [19] = assay: Antimicrobial activity against Staphylococcus aureus MTCC 3160 after 24 hrs by broth dilution method; settings: MTCC 3160, 24 h

Compound | inhibition (INH) (Rattus norvegicus [1]) [%] | inhibition (INH) (Rattus norvegicus [2]) [%] | inhibition (INH) (Rattus norvegicus [3]) [%] | zone of inhibition at 5000 µg/mL (Candida tropicalis [4]) [mm] | zone of inhibition at 5000 µg/mL (Candida albicans [5]) [mm] | zone of inhibition at 5000 µg/mL (Aspergillus niger [6]) [mm] | MIC (Escherichia coli [7]) [µg/mL] | MIC (Bacillus subtilis [8]) [µg/mL] | MIC (Candida albicans [9]) [µg/mL] | MIC (Aspergillus niger [10]) [µg/mL] | MIC (Penicillium chrysogenum [11]) [µg/mL] | zone of inhibition at 5000 µg/mL (Staphylococcus aureus [12]) [mm] | zone of inhibition at 5000 µg/mL (Klebsiella pneumoniae [13]) [mm] | MIC (Klebsiella pneumoniae [14]) [µg/mL] | zone of inhibition at 5000 µg/mL (Penicillium chrysogenum [15]) [mm] | zone of inhibition at 5000 µg/mL (Escherichia coli [16]) [mm] | MIC (Candida tropicalis [17]) [µg/mL] | zone of inhibition at 5000 µg/mL (Bacillus subtilis [18]) [mm] | MIC (Staphylococcus aureus [19]) [µg/mL]
O=C([O-])Cc1ccccc1Nc1c(Cl)cccc1Cl.[Na+] [DICLOFENAC SODIUM] | 62.96 | 73.28 | 74.74 |  |  |  |  |  |  |  |  |  |  |  |  |  |  |  | 
CCCn1c(-c2ccc(Cl)cc2Cl)nc2cc(C(=O)N/N=C/c3cc(C)c(O)c(C)c3)ccc21 | 51.11 | 50.48 | 43.06 | 16 | 14 | 20 | 6.25 (≈ 12.6 µM) | 12.5 (≈ 25.2 µM) | 50 (≈ 101 µM) | 6.25 (≈ 12.6 µM) | 25 (≈ 50.5 µM) | 17 | 17 | 25 (≈ 50.5 µM) | 15 | 20 | 12.5 (≈ 25.2 µM) | 17 | 12.5 (≈ 25.2 µM)
CCCn1c(-c2ccc(Cl)cc2Cl)nc2cc(C(=O)N/N=C/c3ccc(OC)cc3)ccc21 | 51.11 | 62.23 | 64.67 | 16 | 15 | 18 | 12.5 (≈ 26 µM) | 50 (≈ 104 µM) | 25 (≈ 51.9 µM) | 12.5 (≈ 26 µM) | 50 (≈ 104 µM) | 17 | 14 | 50 (≈ 104 µM) | 12 | 17 | 25 (≈ 51.9 µM) | 10 | 12.5 (≈ 26 µM)
CCCn1c(-c2ccc(Cl)cc2Cl)nc2cc(C(=O)N/N=C/c3cccc([N+](=O)[O-])c3)ccc21 | 52.22 | 53.14 | 42.91 | 20 | 17 | 20 | 25 (≈ 50.4 µM) | 12.5 (≈ 25.2 µM) | 6.25 (≈ 12.6 µM) | 6.25 (≈ 12.6 µM) | 12.5 (≈ 25.2 µM) | 17 | 18 | 12.5 (≈ 25.2 µM) | 15 | 15 | 3.12 (≈ 6.29 µM) | 17 | 12.5 (≈ 25.2 µM)
CCCn1c(-c2ccc(Cl)cc2Cl)nc2cc(C(=O)N/N=C/c3ccc(F)cc3)ccc21 | 61.48 | 53.14 | 50.36 | 18 | 18 | 20 | 6.25 (≈ 13.3 µM) | 6.25 (≈ 13.3 µM) | 6.25 (≈ 13.3 µM) | 6.25 (≈ 13.3 µM) | 25 (≈ 53.3 µM) | 20 | 19 | 6.25 (≈ 13.3 µM) | 15 | 20 | 6.25 (≈ 13.3 µM) | 19 | 6.25 (≈ 13.3 µM)
CC1(C)S[C@@H]2[C@H](NC(=O)[C@H](N)c3ccccc3)C(=O)N2[C@H]1C(=O)O [AMPICILLIN] |  |  |  |  |  |  | 1.56 (≈ 4.46 µM) | 1.56 (≈ 4.46 µM) |  |  |  | 26 | 23 | 3.12 (≈ 8.93 µM) |  | 25 |  | 24 | 1.56 (≈ 4.46 µM)
COc1ccc2c(c1)c(CC(=O)O)c(C)n2C(=O)c1ccc(Cl)cc1 [INDOMETHACIN] | 55.55 | 68.11 | 69.34 |  |  |  |  |  |  |  |  |  |  |  |  |  |  |  | 
OC(Cn1cncn1)(Cn1cncn1)c1ccc(F)cc1F [FLUCONAZOLE] |  |  |  | 24 | 23 | 24 |  |  | 1.56 (≈ 5.09 µM) | 1.56 (≈ 5.09 µM) | 3.12 (≈ 10.2 µM) |  |  |  | 22 |  | 1.56 (≈ 5.09 µM) |  | 
